In patent US20150175608A1, “NOVEL 4-SUBSTITUTED 1,3-DIHYDRO-2H-BENZIMIDAZOL-2-ONE DERIVATIVES SUBSTITUTED WITH BENZIMIDAZOLES AS RESPIRATORY SYNCYTIAL VIRUS ANTIVIRAL AGENTS” (Janssen R&D Ireland, priority 2012, published 2015):
pEC50: −log10 of the molar value.

What was measured:
rgRSV224 virus = assay: Antiviral activity: rgRSV224 replication (GFP expression) in HeLa cells; type: cell-based; conditions: human respiratory syncytial virus, 72 h, read-out: WT activity EC50
Protocol: (§1) Antiviral Activity Black 96-well clear-bottom microtiter plates (Corning, Amsterdam, The Netherlands) were filled in duplicate using a customized robot system with serial 4-fold dilutions of compound in a final volume of 50 μl culture medium [RPMI medium without phenol red, 10% FBS, 0.04% gentamycin (50 mg/ml) and 0.5% DMSO]. Then, 100 μl of a HeLa cell suspension (5×10^4 cells/ml) in culture medium was added to each well followed by the addition of 50 μl rgRSV224 (MOI=0.02) virus in culture medium using a multidrop dispenser (Thermo Scientific, Erembodegem, Belgium). rgRSV224 virus is an engineered virus that includes an additional GFP gene (Hallak et al, 2000) and was in-licensed from the NIH (Bethesda, Md., USA). Medium, virus- and mock-infected controls were included in each test. Cells were incubated at 37° C. in a 5% CO2 atmosphere. Three days post-virus exposure, viral replication was quantified by measuring GFP expression in the cells by a MSM laser microscope (Tibotec, Beerse, Belgium). The EC50 was defined as the 50% inhibitory concentration for GFP expression. In parallel, compounds were incubated for three days in a set of white 96-well microtiter plates (Corning) and the cytotoxicity of compounds in HeLa cells was determined by measuring the ATP content of the cells using the ATPlite kit (PerkinElmer, Zaventem, Belgium) according to the manufacturer's instructions. The CC50 was defined as the 50% concentration for cytotoxicity.

in vitro = type: cell-based; conditions: human
Protocol: as §1

Row | Structure (SMILES) | pEC50 (rgRSV224 virus) | CC50 at 3 days (in vitro) [nM] | melting point [°C]
1 | CS(=O)(=O)CCCn1c(Cn2c(=O)n(C3CC3)c3c(Cl)cccc32)nc2cc(Cl)ccc21 [Compound P2, 4-Chloro-1-((5-chloro-1-(3-(methylsulfonyl)propyl)-1H-benzo[d]imidazol-2-yl)methyl)-3-cyclopropyl-1H-benzo[d]imidazol-2(3H)-one] | 8.13 | > 100000 | –
2 | Cc1cccc2c1n(C1CC1)c(=O)n2Cc1nc2cc(Cl)ccc2n1CCCS(C)(=O)=O [Compound P3, 1-((5-Chloro-1-(3-(methylsulfonyl)propyl)-1H-benzo[d]imidazol-2-yl)-methyl)-3-cyclopropyl-4-methyl-1H-benzo[d]imidazol-2(3H)-one] | 8.29 | 64600 | –
3 | CS(=O)(=O)CCCn1c(Cn2c(=O)n(C3CC3)c3c(C(F)(F)F)cccc32)nc2cc(Cl)ccc21 [Compound P5, 1-((5-chloro-1-(3-(methylsulfonyl)propyl)-1H-benzo[d]imidazol-2-yl)-methyl)-3-cyclopropyl-4-(trifluoromethyl)-1H-benzo[d]imidazol-2(3H)-one] | 7.55 | > 100000 | 210.18
4 | CS(=O)(=O)CCCn1c(Cn2c(=O)n(CC(F)(F)F)c3c(Cl)cncc32)nc2cc(Cl)ccc21 [Compound P6, 7-chloro-3-((5-chloro-1-(3-(methylsulfonyl)propyl)-1H-benzo[d]imidazol-2-yl)methyl)-1-(2,2,2-trifluoroethyl)-1H-imidazo[4,5-c]pyridin-2(3H)-one] | 8.05 | > 100000 | 232.82
5 | CS(=O)(=O)CCCn1c(Cn2c(=O)n(C3CC3)c3c(Cl)cncc32)nc2cc(Cl)ccc21 [Compound P1, 7-Chloro-3-((5-chloro-1-(3-(methylsulfonyl)-propyl)-1H-benzo[d]imidazol-2-yl)methyl)-1-cyclopropyl-1H-imidazo[4,5-c]pyridin-2(3H)-one] | 8.77 | > 100000 | –
6 | CS(=O)(=O)CCCn1c(Cn2c(=O)n(CC(F)(F)F)c3c(Cl)cccc32)nc2cc(Cl)ccc21 [Compound P7, 4-chloro-1-((5-chloro-1-(3-(methylsulfonyl)propyl)-1H-benzo[d]imidazol-2-yl)methyl)-3-(2,2,2-trifluoroethyl)-1H-benzo[d]imidazol-2(3H)-one] | 7.92 | 69000 | –
7 | Cc1cncc2c1n(C1CC1)c(=O)n2Cc1nc2cc(Cl)ccc2n1CCCS(C)(=O)=O [Compound P4, 3-((5-chloro-1-(3-(methylsulfonyl)propyl)-1H-benzo[d]imidazol-2-yl)methyl)-1-cyclopropyl-7-methyl-1H-imidazo[4,5-c]pyridin-2(3H)-one] | 8.85 | > 100000 | –
